Assay [1] deals with T1, Protein cereblon/Focal adhesion kinase 1 (Homo sapiens, UniProt Q05397+Q96SW2). In words: Protac activity at CRBN/PTK2 in human HuH-1 cells assessed as induction of PTK2 degradation incubated for 18 hrs by protein capillary electrophoresis method. Format: cell-based.
Target sequence in this assay (Q05397 whole entry): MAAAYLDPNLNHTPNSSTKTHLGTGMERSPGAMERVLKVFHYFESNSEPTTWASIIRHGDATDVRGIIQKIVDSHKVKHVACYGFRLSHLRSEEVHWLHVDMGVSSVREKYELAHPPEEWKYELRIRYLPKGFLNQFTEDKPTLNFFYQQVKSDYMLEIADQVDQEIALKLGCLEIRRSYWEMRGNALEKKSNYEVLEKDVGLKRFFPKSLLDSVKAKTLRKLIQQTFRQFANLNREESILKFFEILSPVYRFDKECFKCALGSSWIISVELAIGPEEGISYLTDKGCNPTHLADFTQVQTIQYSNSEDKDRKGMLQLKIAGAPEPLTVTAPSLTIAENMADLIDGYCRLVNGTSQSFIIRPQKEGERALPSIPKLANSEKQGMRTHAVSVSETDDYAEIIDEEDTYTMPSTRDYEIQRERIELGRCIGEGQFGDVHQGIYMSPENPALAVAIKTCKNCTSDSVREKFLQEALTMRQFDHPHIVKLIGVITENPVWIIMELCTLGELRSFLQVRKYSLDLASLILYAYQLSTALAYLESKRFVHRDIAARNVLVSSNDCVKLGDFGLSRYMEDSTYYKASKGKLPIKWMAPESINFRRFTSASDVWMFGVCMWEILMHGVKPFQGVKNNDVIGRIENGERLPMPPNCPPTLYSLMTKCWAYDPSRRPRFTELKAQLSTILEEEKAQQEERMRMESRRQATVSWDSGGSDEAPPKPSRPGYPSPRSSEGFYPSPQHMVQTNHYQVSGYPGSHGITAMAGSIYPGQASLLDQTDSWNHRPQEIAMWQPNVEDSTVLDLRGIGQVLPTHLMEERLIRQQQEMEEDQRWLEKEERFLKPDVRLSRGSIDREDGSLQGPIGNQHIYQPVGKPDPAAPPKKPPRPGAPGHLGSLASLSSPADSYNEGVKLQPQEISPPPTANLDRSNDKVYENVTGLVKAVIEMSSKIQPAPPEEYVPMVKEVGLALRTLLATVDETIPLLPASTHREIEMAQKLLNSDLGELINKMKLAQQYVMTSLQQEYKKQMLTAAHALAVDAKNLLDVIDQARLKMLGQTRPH
Target sequence in this assay (Q96SW2 whole entry): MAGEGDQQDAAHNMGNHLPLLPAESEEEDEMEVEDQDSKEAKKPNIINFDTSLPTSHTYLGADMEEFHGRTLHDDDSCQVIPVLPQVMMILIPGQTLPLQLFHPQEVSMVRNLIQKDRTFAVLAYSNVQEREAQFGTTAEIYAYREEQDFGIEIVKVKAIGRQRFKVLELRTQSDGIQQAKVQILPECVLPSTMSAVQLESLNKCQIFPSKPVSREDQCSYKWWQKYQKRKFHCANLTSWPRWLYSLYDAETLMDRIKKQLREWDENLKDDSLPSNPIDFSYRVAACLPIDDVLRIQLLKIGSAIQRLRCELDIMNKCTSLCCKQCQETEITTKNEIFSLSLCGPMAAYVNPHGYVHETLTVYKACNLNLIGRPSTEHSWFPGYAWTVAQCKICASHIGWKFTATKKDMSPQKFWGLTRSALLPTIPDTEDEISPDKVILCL
Assay [2] addresses T1, Protein cereblon/Focal adhesion kinase 1. As to the kind of experiment: Protac activity at CRBN/PTK2 in human SNU-423 cells assessed as induction of PTK2 degradation incubated for 18 hrs by protein capillary electrophoresis method relative to control. Format: cell-based.
The target is the same in assay [3]. As to the kind of experiment: Protac activity at CRBN/PTK2 in human SNU-398 cells assessed as induction of PTK2 degradation incubated for 18 hrs by protein capillary electrophoresis method. The format is cell-based.
Target sequence in this assay (Q05397 whole entry): as the sequence (Q05397 whole entry) above
Target sequence in this assay (Q96SW2 whole entry): as the sequence (Q96SW2 whole entry) above
For assay [4] the target is unchanged. In words: Protac activity at CRBN/PTK2 in human A549 cells assessed as time required for maximal induction of PTK2 degradation at 3 uM by protein capillary electrophoresis method. The format is cell-based.
Assay [5] shares this target. As to the kind of experiment: Protac activity at CRBN/PTK2 in human SK-HEP1 cells assessed as induction of PTK2 degradation incubated for 18 hrs by protein capillary electrophoresis method. Format: cell-based.
Target sequence in this assay (Q05397 whole entry): as the sequence (Q05397 whole entry) above
Target sequence in this assay (Q96SW2 whole entry): as the sequence (Q96SW2 whole entry) above
Assay [6] shares this target. In words: Protac activity at CRBN/PTK2 in human HepG2 cells assessed as induction of PTK2 degradation incubated for 18 hrs by protein capillary electrophoresis method relative to control. The format is cell-based.
For assay [7] the target is unchanged. In words: Protac activity at CRBN/PTK2 in human Hep3B2.1-7 cells assessed as time required for maximal induction of PTK2 degradation at 3 uM incubated for up to 80 hrs by protein capillary electrophoresis method. Particulars: time hrs <=80.
Assay [8] shares this target. As to the kind of experiment: Protac activity at CRBN/PTK2 in human Huh-7 cells assessed as induction of PTK2 degradation incubated for 18 hrs by protein capillary electrophoresis method relative to control. Format: cell-based.
Assay [9] shares this target. In words: Protac activity at CRBN/PTK2 in human SNU-398 cells assessed as induction of PTK2 degradation incubated for 18 hrs by protein capillary electrophoresis method relative to control. Format: cell-based.
The target is the same in assay [10]. In words: Protac activity at CRBN/PTK2 in human HLF1 cells assessed as induction of PTK2 degradation incubated for 18 hrs by protein capillary electrophoresis method. Format: cell-based.
Target sequence in this assay (Q05397 whole entry): as the sequence (Q05397 whole entry) above
Target sequence in this assay (Q96SW2 whole entry): as the sequence (Q96SW2 whole entry) above
For assay [11] the target is unchanged. In words: Protac activity at CRBN/PTK2 in human HLE cells assessed as induction of PTK2 degradation incubated for 18 hrs by protein capillary electrophoresis method. Format: cell-based.
Target sequence in this assay (Q05397 whole entry): as the sequence (Q05397 whole entry) above
Target sequence in this assay (Q96SW2 whole entry): as the sequence (Q96SW2 whole entry) above
Assay [12] shares this target. As to the kind of experiment: Protac activity at CRBN/PTK2 in human HuCCT-1 cells assessed as induction of PTK2 degradation incubated for 18 hrs by protein capillary electrophoresis method. Format: cell-based.
Target sequence in this assay (Q05397 whole entry): as the sequence (Q05397 whole entry) above
Target sequence in this assay (Q96SW2 whole entry): as the sequence (Q96SW2 whole entry) above
For assay [13] the target is unchanged. In words: Protac activity at CRBN/PTK2 in human A549 cells assessed as induction of PTK2 degradation incubated for 18 hrs by protein capillary electrophoresis method. Format: cell-based.
Assay [14] has the same target. In words: Protac activity at CRBN/PTK2 in human SNU-387 cells assessed as induction of PTK2 degradation incubated for 18 hrs by protein capillary electrophoresis method. Format: cell-based.
Assay [15] shares this target. As to the kind of experiment: Protac activity at CRBN/PTK2 in human HuH-1 cells assessed as induction of PTK2 degradation incubated for 18 hrs by protein capillary electrophoresis method relative to control. The format is cell-based.
Assay [16] shares this target. As to the kind of experiment: Protac activity at CRBN/PTK2 in human A549 cells assessed as induction of PTK2 degradation incubated for 18 hrs by protein capillary electrophoresis method relative to control. Format: cell-based.
Assay [17] has the same target. In words: Protac activity at CRBN/PTK2 in human HepG2 cells assessed as induction of PTK2 degradation incubated for 18 hrs by protein capillary electrophoresis method. The format is cell-based.
Assay [18] has the same target. As to the kind of experiment: Protac activity at CRBN/PTK2 in human Hep3B2.1-7 cells assessed as induction of PTK2 degradation incubated for 18 hrs in presence of Cyclosporine A by protein capillary electrophoresis method. Format: cell-based. The note with it: hep3b.
The target in assay [19] is Tyrosine-protein kinase Fes/Fps (Homo sapiens) (UniProt P07332). As to the kind of experiment: Inhibition of FES (unknown origin) at 1 uM relative to control.
Sequence of Tyrosine-protein kinase Fes/Fps (Homo sapiens) (P07332 whole entry): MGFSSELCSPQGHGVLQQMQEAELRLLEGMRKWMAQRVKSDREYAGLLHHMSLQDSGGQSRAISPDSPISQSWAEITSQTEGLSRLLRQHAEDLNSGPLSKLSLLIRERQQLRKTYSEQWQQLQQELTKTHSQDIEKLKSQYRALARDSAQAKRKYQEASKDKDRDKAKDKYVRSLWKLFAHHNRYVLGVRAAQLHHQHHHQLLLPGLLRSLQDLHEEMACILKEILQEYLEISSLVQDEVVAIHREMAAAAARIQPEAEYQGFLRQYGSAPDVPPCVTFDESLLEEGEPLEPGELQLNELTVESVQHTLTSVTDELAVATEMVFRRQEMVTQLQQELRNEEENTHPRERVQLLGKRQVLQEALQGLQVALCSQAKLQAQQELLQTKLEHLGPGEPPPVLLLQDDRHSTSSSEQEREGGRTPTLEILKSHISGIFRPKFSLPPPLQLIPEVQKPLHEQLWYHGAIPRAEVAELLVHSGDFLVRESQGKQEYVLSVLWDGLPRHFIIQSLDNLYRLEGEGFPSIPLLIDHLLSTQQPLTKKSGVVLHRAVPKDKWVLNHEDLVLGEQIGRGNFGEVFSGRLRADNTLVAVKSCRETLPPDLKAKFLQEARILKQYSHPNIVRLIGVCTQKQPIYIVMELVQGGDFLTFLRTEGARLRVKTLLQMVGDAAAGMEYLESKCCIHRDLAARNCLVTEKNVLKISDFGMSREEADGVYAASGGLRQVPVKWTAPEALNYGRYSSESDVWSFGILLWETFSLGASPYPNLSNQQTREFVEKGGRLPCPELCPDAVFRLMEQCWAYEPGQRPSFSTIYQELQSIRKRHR
The target in assay [20] is T2, von Hippel-Lindau disease tumor suppressor/Focal adhesion kinase 1 (Homo sapiens, UniProt Q05397+P40337). In words: Protac activity at VHL/PTK2 in human A549 cells assessed as induction of PTK2 degradation incubated for 18 hrs by protein capillary electrophoresis method relative to control. The format is cell-based.
The target of assay [21] is T2, von Hippel-Lindau disease tumor suppressor/Focal adhesion kinase 1. As to the kind of experiment: Protac activity at VHL/PTK2 in human Hep3B2.1-7 cells assessed as induction of PTK2 degradation incubated for 18 hrs in presence of Cyclosporine by protein capillary electrophoresis method. Format: cell-based. Particulars: hep3b.
Target sequence in this assay (Q05397 whole entry): as the sequence (Q05397 whole entry) above
Target sequence in this assay (P40337 whole entry): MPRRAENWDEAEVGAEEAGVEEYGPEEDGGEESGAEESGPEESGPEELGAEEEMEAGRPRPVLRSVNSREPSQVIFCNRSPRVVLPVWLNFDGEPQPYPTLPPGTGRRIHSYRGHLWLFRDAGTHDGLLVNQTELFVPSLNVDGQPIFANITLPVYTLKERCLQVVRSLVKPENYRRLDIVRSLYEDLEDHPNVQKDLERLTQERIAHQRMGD
The target is the same in assay [22]. As to the kind of experiment: Protac activity at VHL/PTK2 in human HuCCT-1 cells assessed as induction of PTK2 degradation incubated for 18 hrs by protein capillary electrophoresis method relative to control. The format is cell-based.
The target is the same in assay [23]. As to the kind of experiment: Protac activity at VHL/PTK2 in human HLF1 cells assessed as induction of PTK2 degradation incubated for 18 hrs by protein capillary electrophoresis method relative to control. Format: cell-based.
Assay [24] shares this target. In words: Protac activity at VHL/PTK2 in human SNU-387 cells assessed as induction of PTK2 degradation incubated for 18 hrs by protein capillary electrophoresis method relative to control. Format: cell-based.
For assay [25] the target is unchanged. As to the kind of experiment: Protac activity at VHL/PTK2 in human Hep3B2.1-7 cells assessed as induction of PTK2 degradation incubated for 18 hrs by protein capillary electrophoresis method. Format: cell-based. Particulars: hep3b.
Target sequence in this assay (Q05397 whole entry): as the sequence (Q05397 whole entry) above
Target sequence in this assay (P40337 whole entry): as the sequence (P40337 whole entry) above
Assay [26] has the same target. In words: Protac activity at VHL/PTK2 in human Huh-7 cells assessed as induction of PTK2 degradation incubated for 18 hrs by protein capillary electrophoresis method. The format is cell-based.
Target sequence in this assay (Q05397 whole entry): as the sequence (Q05397 whole entry) above
Target sequence in this assay (P40337 whole entry): as the sequence (P40337 whole entry) above
For assay [27] the target is unchanged. In words: Protac activity at VHL/PTK2 in human SNU-398 cells assessed as induction of PTK2 degradation incubated for 18 hrs by protein capillary electrophoresis method. Format: cell-based.
Target sequence in this assay (Q05397 whole entry): as the sequence (Q05397 whole entry) above
Target sequence in this assay (P40337 whole entry): as the sequence (P40337 whole entry) above
For assay [28] the target is unchanged. In words: Protac activity at VHL/PTK2 in human SNU-423 cells assessed as induction of PTK2 degradation incubated for 18 hrs by protein capillary electrophoresis method relative to control. The format is cell-based.
Assay [29] has the same target. In words: Protac activity at VHL/PTK2 in human SK-HEP1 cells assessed as induction of PTK2 degradation incubated for 18 hrs by protein capillary electrophoresis method relative to control. Format: cell-based.
In assay [30] the target is Leucine-rich repeat serine/threonine-protein kinase 2 (Homo sapiens) (UniProt Q5S007). As to the kind of experiment: Inhibition of LRRK2 (unknown origin) at 1 uM relative to control.
The target of assay [31] is T2, von Hippel-Lindau disease tumor suppressor/Focal adhesion kinase 1. In words: Protac activity at VHL/PTK2 in human HLE cells assessed as induction of PTK2 degradation incubated for 18 hrs by protein capillary electrophoresis method relative to control. Format: cell-based.
Assay [32] shares this target. As to the kind of experiment: Protac activity at VHL/PTK2 in human SNU-423 cells assessed as induction of PTK2 degradation incubated for 18 hrs by protein capillary electrophoresis method. Format: cell-based.
Target sequence in this assay (Q05397 whole entry): as the sequence (Q05397 whole entry) above
Target sequence in this assay (P40337 whole entry): as the sequence (P40337 whole entry) above
For assay [33] the target is unchanged. As to the kind of experiment: Protac activity at VHL/PTK2 in human HepG2 cells assessed as induction of PTK2 degradation incubated for 18 hrs by protein capillary electrophoresis method. The format is cell-based.
Target sequence in this assay (Q05397 whole entry): as the sequence (Q05397 whole entry) above
Target sequence in this assay (P40337 whole entry): as the sequence (P40337 whole entry) above
Assay [34] has the same target. In words: Protac activity at VHL/PTK2 in human HuH-1 cells assessed as induction of PTK2 degradation incubated for 18 hrs by protein capillary electrophoresis method relative to control. Format: cell-based.
Assay [35] shares this target. In words: Protac activity at VHL/PTK2 in human A549 cells assessed as induction of PTK2 degradation incubated for 18 hrs by protein capillary electrophoresis method. The format is cell-based.

SMILES strings stand for the structures.

The Emax is the greatest response seen or fitted, relative to the assay's reference. In the case of `COc1cc(C(=O)NCCOCCOCCOCCC(=O)Nc2cccc3c2C(=O)N(C2CCC(=O)NC2=O)C3=O)ccc1Nc1ncc(C(F)(F)F)c(Oc2cccc3c2C(=O)CC3)n1` (stereo not given), the pDC50 was 6.6 in assay [1]; 8.5 in [3]; 7.5 in [5]; 6.4 in assay [10]; 6.8 in assay [11]; 7.9 in assay [12]. Also, the pDC50 in assay [13] was found to be 7.6; in [14], 7.6; in assay [17], 7.5; in assay [18], 9. Also, the Emax in [2] is 93%; in assay [6], 89%; in assay [8], 93%; in assay [9] it was 95%; in [15], 50%; in assay [16], 95%. For the same compound, the TIME stood at 18 h in [4] and 5 h in [7].

A word on the inhibition: it is the change of the read-out against control, counted positive when it falls. A lower inhibition goes with little suppression. `COc1cc(C(=O)NCCOCCOCCOCC(=O)N[C@H](C(=O)N2C[C@H](O)C[C@H]2C(=O)NCc2ccc(-c3scnc3C)cc2)C(C)(C)C)ccc1Nc1ncc(C(F)(F)F)c(Oc2cccc3c2C(=O)CC3)n1`: the inhibition in assay [19] and in [30] was more than 90% throughout. Also, the maximal effect (Emax) is 80% in assay [20]; 86% in assay [22]; 66% in assay [23]; 98% in assay [24]; 87% in [28]; 87% in assay [29]. Also, the Emax stood at 85% in assay [31] and 79% in assay [34]. The pDC50 was 7.4 in [21]; 6.2 in assay [25]; 7 in assay [26]; 8 in assay [27]; 7.1 in assay [32]; 6.2 in [33]. The pDC50 in [35] is 6.7.
